One test concerns EPO. In words: Mouse serum EPO assay (mouse ischemic hindlimb study). It is filed as in vivo. To be noted: versus vehicle; after oral dosing; FIG. 2. The procedure: (§1) Mouse Ischemic Hindlimb Study
(§2) All animal work is conducted in accordance with the Guide for the Care and Use of Laboratory Animals (National Academy of Sciences; Copyright© 1996) and the Institutional Animal Care and Use Committee guidelines at Procter and Gamble Pharmaceuticals. We studied 9-10 week old male C57Bl/6 mice from Charles River Laboratory (Portage, Mich.). The mice are orally dosed with vehicle (aqueous carbonate buffer, 50 mM; pH 9.0) or compound 1 in vehicle at 50 mg/kg or 100 mg/kg. The animals are dosed three times: day 1 at 8 am and 5 pm, day 2 at 8 am. One hour after the first dose, unilateral arterial ligation is performed under anesthesia using isoflurane. The femoral artery is ligated proximal to the origin of the popliteal artery. The contralateral limb underwent a sham surgical procedure. Ligation is performed in an alternating fashion between right and left hindlimbs. Two hours after 8 am dosing on day 2, we obtained blood by ventricular stick while the mice are anesthetized with isoflurane. Serum samples for EPO analysis are obtained using gel clot serum separation tubes. Heart, liver, and gastrocnemius muscles are harvested, snap-frozen in liquid nitrogen, and stored in −80° C. until use.
The mouse serum EPO is detected using Mouse Quantikine Erythropoietin ELISA kit from R&D Systems according to manufacturer's instructions.

Another test has as its system HIF-1α. Description: Mouse tissue HIF Western blot analysis. Format: in vivo. To be noted: mouse liver; FIG. 1. Here is the method:
as §1, §2
Mouse Tissue HIF Western Blot Analysis
Tissues from mice stored at −80° C. are powdered with mortar and pestle chilled with liquid nitrogen. […]

As to `O=C(O)CNC(=O)c1ncc(-c2cccc(Cl)c2)cc1O` [{[5-(3-Chlorophenyl)-3-hydroxypyridine-2-carbonyl]amino}-acetic acid], in the test on EPO, the “erythropoietin level in mouse serum” value is “elevated versus vehicle”. Further, in the test on HIF-1α, the “stabilization of HIF-1α, immunoblot analysis of nuclear extracts” value was “stabilization of HIF-1α in mouse liver”.

The values above are taken from patent USRE47437E1, “Prolyl hydroxylase inhibitors and methods of use” (Akebia Therapeutics, Inc., priority 2015, dated 2019).
